Counter-ions that a name gives are not always drawn. Calls of active or inactive are those of the source.
Assays:
[1] = target: Serine/threonine-protein phosphatase (Candida dubliniensis (strain CD36 / CBS 7987 / NCPF 3949 / NRRLY-17841) (Yeast), UniProt B9W6M3); experiment: blockers of CaCl2-induced CDRE-lacZ signaling – S. cerevisiae, luminescence, secondary, dose response (AID 2388); type: functional, cell-based;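 also: yeast reporter cells carrying a calcineurin-responsive lacZ construct stimulated with calcium chloride; luminescent beta-galactosidase reporter signal in whole cells rather than isolated phosphatase activity; potency for inhibition where a drop in reporter signal means calcineurin blockade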
[2] = NIH-3T3 fibroblast cytotoxicity, dose response, cytotoxicity control, cell-based, fluorescence, Alamar Blue, secondary assay (AID 2327); type: functional;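 also: NIH-3T3 mouse fibroblasts cultured with fluconazole at 8 µg/mL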
[3] = target: ATP-dependent molecular chaperone HSP82 (Candida albicans (strain WO-1) (Yeast), UniProt C4YTQ8); experiment: steroid-induced GRE reporter decrease in yeast – S. cerevisiae, luminescence, Hsp90 inhibitor project, dose response (AID 2400); type: functional, cell-based;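 also: beta-galactosidase luminescence from glucocorticoid response element reporter as proxy for Hsp90 function; inhibitor potency where signal loss means Hsp90 inhibition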
[4] = fluconazole-exposed Candida albicans growth modulators – fluorescence, retest, confirmation (AID 2467); type: functional, cell-based
Escherichia coli [5] = experiment: microbe, parasite or virus in culture
[6] = Counterscreen for AddAB inhibitors: absorbance-based bacterial cell-based high throughput dose response assay for inhibitors of bacterial viability. [Related pubchem assays (depositor defined):AID435030, AID449728, AID449731, AID488942, AID488955, AID488956]; type: functional
Exodeoxyribonuclease V = Exodeoxyribonuclease V (Escherichia coli (strain K12), UniProt P04993+P07648+P08394); experiment: RecBCD inhibition via phage-restricted bacterial growth – absorbance, V66 E. coli, mutant T4 phage, counter-screen for AddAB inhibitor project, dose response (AID 492957); type: functional, cell-based, Escherichia coli str. K-12 substr. MG1655
Chain of Exodeoxyribonuclease V (P04993 whole entry): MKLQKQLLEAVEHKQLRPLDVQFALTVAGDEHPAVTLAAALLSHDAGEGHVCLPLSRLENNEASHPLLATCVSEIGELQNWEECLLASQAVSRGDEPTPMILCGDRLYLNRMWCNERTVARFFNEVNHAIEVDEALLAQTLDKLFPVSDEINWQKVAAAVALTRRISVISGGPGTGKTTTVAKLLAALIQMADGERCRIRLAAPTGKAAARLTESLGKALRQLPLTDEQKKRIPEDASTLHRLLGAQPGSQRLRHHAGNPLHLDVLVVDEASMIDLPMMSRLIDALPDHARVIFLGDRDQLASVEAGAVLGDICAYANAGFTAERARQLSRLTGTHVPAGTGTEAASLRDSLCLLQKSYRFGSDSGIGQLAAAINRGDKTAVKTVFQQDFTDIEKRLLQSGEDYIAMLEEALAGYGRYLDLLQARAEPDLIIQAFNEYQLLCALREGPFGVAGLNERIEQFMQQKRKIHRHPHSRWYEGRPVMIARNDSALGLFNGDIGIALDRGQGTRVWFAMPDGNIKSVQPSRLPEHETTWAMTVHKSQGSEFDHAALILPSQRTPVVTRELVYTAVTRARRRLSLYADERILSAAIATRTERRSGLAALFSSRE
Chain of Exodeoxyribonuclease V (P07648 whole entry): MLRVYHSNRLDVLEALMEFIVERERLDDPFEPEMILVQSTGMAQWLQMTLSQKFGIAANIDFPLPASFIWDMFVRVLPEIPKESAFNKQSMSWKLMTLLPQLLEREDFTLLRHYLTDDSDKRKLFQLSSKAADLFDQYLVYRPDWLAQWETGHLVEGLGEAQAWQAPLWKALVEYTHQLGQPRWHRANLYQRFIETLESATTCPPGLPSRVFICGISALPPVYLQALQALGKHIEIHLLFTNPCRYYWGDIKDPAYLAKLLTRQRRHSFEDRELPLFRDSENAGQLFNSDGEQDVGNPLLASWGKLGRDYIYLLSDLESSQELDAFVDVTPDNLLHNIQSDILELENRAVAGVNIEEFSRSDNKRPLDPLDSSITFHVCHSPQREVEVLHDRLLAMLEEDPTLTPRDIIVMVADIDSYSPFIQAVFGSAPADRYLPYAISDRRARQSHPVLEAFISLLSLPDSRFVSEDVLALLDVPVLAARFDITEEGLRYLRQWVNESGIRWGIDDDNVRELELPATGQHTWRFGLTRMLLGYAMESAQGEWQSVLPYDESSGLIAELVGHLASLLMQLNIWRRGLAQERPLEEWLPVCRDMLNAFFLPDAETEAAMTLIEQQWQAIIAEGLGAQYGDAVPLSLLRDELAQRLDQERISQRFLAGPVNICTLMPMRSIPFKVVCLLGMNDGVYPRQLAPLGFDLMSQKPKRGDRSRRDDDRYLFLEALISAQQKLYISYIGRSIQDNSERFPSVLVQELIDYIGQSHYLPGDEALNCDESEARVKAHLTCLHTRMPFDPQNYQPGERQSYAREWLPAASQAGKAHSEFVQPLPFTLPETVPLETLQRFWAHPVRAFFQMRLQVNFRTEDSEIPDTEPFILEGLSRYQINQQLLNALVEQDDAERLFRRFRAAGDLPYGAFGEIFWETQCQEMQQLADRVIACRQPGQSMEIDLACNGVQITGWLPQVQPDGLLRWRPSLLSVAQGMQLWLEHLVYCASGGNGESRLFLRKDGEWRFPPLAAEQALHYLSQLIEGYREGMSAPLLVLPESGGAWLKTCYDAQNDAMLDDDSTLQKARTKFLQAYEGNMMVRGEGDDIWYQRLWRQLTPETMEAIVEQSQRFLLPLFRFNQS
Chain of Exodeoxyribonuclease V (P08394 whole entry): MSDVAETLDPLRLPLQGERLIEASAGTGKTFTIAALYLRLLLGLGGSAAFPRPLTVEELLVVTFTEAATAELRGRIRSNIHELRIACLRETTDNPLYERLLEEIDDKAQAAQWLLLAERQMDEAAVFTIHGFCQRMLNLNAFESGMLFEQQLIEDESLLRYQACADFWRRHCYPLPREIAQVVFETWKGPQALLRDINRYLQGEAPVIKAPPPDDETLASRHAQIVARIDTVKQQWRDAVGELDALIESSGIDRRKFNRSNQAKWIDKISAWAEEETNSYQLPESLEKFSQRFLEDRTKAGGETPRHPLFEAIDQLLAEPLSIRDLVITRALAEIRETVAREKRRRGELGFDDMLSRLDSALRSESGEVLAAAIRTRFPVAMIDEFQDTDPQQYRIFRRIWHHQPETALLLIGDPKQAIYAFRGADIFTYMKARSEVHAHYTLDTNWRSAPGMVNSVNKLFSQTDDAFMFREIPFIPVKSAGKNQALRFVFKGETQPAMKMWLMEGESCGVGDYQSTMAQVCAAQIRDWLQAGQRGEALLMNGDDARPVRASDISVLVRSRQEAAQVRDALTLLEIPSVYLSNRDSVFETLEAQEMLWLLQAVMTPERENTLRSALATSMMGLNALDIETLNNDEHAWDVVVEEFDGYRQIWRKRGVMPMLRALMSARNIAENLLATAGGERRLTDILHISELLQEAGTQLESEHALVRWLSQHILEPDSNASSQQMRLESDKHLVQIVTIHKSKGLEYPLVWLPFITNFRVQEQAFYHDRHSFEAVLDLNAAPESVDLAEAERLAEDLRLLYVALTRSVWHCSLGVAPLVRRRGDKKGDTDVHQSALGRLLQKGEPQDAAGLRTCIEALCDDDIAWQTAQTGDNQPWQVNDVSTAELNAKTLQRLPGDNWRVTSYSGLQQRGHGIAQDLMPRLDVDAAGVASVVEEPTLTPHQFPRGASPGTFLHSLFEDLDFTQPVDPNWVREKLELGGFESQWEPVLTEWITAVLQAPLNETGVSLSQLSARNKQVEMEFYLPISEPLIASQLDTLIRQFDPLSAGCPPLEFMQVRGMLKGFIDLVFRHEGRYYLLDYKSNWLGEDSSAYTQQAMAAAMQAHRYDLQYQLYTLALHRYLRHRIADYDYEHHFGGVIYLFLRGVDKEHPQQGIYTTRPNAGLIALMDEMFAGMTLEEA

INS1 = experiment: INS-1E survival protection against cytokine death – cell-based, luminescence, retest, dose response (AID 449756); type: functional; settings: Rattus norvegicus;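 also: cell death triggered by IL-1 beta plus TNF-alpha plus IFN-gamma mixture; protective hits raise ATP signal compared with cytokine alone wells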
[7] = Luminescence Cell-Based Dose Retest to Confirm Inhibitors of Cancer Stem Cells. [Related pubchem assays (depositor defined):AID2717, AID2721]; type: functional, Homo sapiens; settings: Homo sapiens
[8] = viability loss of HMLE_sh_eGFP cells – cell-based, luminescence, counter-screen for HMLE_sh_ECad selective toxicity project, dose response (AID 463074); type: functional, Homo sapiens;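 also: HMLE human mammary epithelial cells expressing control shRNA against eGFP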
[9] = target: Fructose-bisphosphate aldolase (Mycobacterium tuberculosis, UniProt P9WQA3); experiment: Fluorescence-based biochemical high throughput dose response assay for inhibitors of the fructose-bisphosphate aldolase (FBA) of M. tuberculosis.; type: functional
[10] = target: Dual specificity protein kinase CLK1 (Homo sapiens, UniProt P49759); experiment: inhibition of human CLK1 activity – biochemical, cherry-picked samples, selectivity assay for Dyrk1A inhibitor project, dose response (AID 588811)
Chain of Dual specificity protein kinase CLK1 (P49759 whole entry): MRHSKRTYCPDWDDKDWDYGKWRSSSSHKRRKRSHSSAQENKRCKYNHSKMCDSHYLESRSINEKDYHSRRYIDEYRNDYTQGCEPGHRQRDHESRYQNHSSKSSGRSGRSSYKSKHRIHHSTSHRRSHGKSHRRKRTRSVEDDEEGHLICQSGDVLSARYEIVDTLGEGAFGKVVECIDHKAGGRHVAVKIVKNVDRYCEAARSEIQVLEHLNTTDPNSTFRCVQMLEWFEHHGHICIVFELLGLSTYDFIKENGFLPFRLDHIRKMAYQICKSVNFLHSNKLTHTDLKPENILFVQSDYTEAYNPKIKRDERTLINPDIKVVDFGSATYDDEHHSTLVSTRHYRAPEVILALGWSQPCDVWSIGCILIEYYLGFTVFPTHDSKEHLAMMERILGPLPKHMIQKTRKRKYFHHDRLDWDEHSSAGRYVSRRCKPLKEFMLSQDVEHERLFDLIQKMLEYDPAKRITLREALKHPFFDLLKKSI

[11] = target: Dual specificity tyrosine-phosphorylation-regulated kinase 1A (Rattus norvegicus, UniProt Q63470); type: biochemical, Homo sapiens
Escherichia coli [12] = experiment: microbe, parasite or virus in culture; remark: listed apart in the source
[13] = viability loss in human Jurkat cells – cell-based, luminescence, cytotoxicity control for P. falciparum gametocyte viability project, dose response (AID 1117277); type: functional;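 also: potency reflects loss of cellular ATP meaning fewer viable cells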
[14] = viability inhibitors of stage V gametocytes – luminescence, dose response (AID 1117278); type: functional, cell-based;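 also: gametocytes exposed to compound for 24 hours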
[15] = target: T1, Tyrosine-protein phosphatase non-receptor type 22 (Homo sapiens, UniProt Q9Y2R2); type: functional
T1 sequence (Q9Y2R2 whole entry): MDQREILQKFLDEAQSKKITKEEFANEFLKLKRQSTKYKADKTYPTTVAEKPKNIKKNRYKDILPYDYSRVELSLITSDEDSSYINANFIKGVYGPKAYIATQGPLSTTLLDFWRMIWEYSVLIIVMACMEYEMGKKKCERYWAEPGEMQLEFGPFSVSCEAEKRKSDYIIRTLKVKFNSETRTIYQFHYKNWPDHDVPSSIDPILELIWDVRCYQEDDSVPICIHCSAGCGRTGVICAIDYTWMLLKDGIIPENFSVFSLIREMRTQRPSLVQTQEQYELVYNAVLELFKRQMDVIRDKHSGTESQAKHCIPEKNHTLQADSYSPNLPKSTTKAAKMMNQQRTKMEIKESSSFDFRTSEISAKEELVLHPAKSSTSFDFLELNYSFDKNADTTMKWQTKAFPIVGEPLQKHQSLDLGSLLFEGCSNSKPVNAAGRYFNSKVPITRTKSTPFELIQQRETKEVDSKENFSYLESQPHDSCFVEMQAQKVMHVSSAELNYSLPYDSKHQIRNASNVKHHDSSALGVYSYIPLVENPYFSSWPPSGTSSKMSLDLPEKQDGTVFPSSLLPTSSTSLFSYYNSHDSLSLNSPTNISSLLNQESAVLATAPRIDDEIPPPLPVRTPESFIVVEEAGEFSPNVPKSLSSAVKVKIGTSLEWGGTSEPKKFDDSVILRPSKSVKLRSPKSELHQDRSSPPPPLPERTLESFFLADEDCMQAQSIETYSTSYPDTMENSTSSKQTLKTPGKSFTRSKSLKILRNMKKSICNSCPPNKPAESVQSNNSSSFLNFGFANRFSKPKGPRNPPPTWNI

[16] = target: T1, Tyrosine-protein phosphatase non-receptor type 22; type: functional; remark: listed apart in the source
[17] = target: T2, Tyrosine-protein phosphatase non-receptor type 7 (Homo sapiens, UniProt P35236); type: functional
T2 sequence (P35236 whole entry): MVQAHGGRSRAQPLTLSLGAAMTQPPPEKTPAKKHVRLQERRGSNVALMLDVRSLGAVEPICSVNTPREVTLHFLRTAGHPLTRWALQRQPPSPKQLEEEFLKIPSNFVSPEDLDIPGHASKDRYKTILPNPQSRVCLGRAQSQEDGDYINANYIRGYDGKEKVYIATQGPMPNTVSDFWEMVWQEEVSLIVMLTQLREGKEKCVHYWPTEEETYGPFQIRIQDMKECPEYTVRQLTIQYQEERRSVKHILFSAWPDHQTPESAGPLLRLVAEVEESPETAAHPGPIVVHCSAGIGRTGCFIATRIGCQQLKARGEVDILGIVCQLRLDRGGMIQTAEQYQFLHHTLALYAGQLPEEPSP

[18] = target: Peroxisome proliferator-activated receptor gamma/Nuclear receptor coactivator 2 (Homo sapiens, UniProt P37231); experiment: (§1) TR-FRET dose response biochemical High Throughput Screening assay for agonists of the steroid receptor coactivator 2 (SRC-2) recruitment by the peroxisome proliferator-activated receptor gamma (PPAR gamma): non-selective agonists. [Related pubchem assays: 1297, 1032 ]; type: functional
[19] = target: Peroxisome proliferator-activated receptor gamma/Nuclear receptor coactivator 1 (Homo sapiens, UniProt P37231); experiment: as §1, with “1 (SRC-1)” for “2 (SRC-2)”, “assays (depositor defined):AID1300, AID1808, AID504735, AID631]” for “assays: 1297, 1032 ]”; type: protein assay
[20] = target: Peroxisome proliferator-activated receptor gamma/Nuclear receptor coactivator 3 (Homo sapiens, UniProt P37231); experiment: as §1, with “3 (SRC-3)” for “2 (SRC-2)”, “1301 (Confirmation screen.), 1048 (Primary screen.)]” for “1297, 1032 ]”; type: functional
[21] = HGIII-sPLA2 enzyme inhibition potency – biochemical, QFRET, IC50, dose response (AID 743457);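 also: green fluorescence rise as the enzyme cleaves BODIPY PC-A2 in liposomes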
[22] = viability of HCT116 lacking mutant beta-catenin – cell-based, human colon tumor, dose response (AID 1045); type: functional;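 also: HCT116 colon tumor cells with beta catenin knocked out; cells exposed to compound for 60 hours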
Vero [23] = experiment: cells; type: functional, cell-based; settings: Chlorocebus sabaeus
[24] = viability of PTEN-deleted HCT116 cells – cell-based, HCT116 PTEN knockout, dose response (AID 1047); type: functional;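 also: HCT116 colon tumor cells with PTEN knocked out; cells exposed to compound for 60 hours before readout; potency for loss of cell viability measured by luminescence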
Vero [25] = experiment: cells; type: functional; settings: Chlorocebus sabaeus
Mu-type opioid receptor [26] = target: T3, Mu-type opioid receptor (Homo sapiens, UniProt P35372); experiment: SAR Analysis of Agonists of the MOR Receptor using an Image-Based Assay - Set 3. [Related pubchem assays (depositor defined):AID1777, AID1785, AID1786, AID1966, AID2133, AID2136, AID2284, AID2285, AID2352]; type: functional
T3 sequence (P35372 whole entry): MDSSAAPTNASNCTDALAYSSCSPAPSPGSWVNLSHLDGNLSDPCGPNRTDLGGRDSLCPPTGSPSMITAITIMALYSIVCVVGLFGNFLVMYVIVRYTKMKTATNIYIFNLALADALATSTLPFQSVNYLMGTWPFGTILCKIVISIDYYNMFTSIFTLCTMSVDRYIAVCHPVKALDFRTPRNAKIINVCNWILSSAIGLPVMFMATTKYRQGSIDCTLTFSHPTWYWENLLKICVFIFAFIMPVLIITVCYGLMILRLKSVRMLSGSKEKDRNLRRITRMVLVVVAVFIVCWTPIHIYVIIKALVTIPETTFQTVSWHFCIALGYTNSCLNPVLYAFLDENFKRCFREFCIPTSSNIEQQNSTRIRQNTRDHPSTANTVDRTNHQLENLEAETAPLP

[27] = target: T4, Kappa-type opioid receptor (Homo sapiens, UniProt P41145); experiment: SAR analysis of small molecule agonists of the kappa opioid receptor via a luminescent beta-arrestin assay - Set 3. [Related pubchem assays (depositor defined):AID1777, AID1785, AID1786, AID1966, AID2133, AID2136, AID2284, AID2500]; type: functional
T4 sequence (P41145 whole entry): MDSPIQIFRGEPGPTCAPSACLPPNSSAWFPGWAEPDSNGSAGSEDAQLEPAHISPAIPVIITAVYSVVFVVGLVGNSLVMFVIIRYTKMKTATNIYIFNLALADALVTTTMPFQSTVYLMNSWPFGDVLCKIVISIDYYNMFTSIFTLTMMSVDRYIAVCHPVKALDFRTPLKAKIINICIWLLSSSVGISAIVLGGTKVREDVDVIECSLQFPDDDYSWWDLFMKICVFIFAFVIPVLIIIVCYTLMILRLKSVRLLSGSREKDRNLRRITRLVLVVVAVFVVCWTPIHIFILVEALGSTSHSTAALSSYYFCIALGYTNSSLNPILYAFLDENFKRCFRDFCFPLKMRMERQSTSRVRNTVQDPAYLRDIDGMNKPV

[28] = target: T4, Kappa-type opioid receptor; experiment: kappa opioid receptor activation by imaging – image-based, set 3, SAR follow-up (AID 488833); type: functional
[29] = target: Delta-type opioid receptor (Homo sapiens, UniProt P41143); experiment: SAR Analysis of Agonists of the DOR Receptor using an Image-Based Assay - Set 3. [Related pubchem assays (depositor defined):AID1777, AID1786]; type: functional
Chain of Delta-type opioid receptor (P41143 whole entry): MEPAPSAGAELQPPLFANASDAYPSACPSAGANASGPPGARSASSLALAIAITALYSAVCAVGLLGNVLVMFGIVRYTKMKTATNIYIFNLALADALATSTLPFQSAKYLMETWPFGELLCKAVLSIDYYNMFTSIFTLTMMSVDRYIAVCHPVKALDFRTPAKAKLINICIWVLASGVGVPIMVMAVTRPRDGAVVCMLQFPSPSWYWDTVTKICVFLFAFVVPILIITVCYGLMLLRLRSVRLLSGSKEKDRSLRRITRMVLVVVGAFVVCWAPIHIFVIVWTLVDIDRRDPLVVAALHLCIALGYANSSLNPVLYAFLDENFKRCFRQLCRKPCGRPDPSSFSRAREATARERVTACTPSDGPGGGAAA

[30] = target: T5, Rac GTPase-activating protein 1 (Homo sapiens, UniProt Q9H0H5); experiment: blockers of MgcRacGAP-driven Rac1 GTP hydrolysis – biochemical, ADP Hunter fluorescence, primary and confirmatory, confirmation (AID 624330); type: functional
T5 sequence (Q9H0H5 whole entry): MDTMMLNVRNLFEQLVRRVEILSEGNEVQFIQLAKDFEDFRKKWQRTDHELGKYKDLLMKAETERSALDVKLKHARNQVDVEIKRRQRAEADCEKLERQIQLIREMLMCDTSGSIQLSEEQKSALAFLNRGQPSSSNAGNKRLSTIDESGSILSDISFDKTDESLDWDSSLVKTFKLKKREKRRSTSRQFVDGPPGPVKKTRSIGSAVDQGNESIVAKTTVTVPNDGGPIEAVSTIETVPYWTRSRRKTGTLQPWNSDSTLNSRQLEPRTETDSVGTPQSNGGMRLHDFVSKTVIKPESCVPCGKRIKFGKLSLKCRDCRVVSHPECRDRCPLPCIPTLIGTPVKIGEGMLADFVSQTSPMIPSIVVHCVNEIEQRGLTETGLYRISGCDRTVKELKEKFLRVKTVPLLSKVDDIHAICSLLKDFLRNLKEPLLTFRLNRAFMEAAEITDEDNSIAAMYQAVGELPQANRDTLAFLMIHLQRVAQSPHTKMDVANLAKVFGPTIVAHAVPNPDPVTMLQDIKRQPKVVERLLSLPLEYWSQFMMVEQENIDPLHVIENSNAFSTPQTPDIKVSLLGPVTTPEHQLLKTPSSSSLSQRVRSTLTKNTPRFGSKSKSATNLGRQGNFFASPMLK

[31] = bead-based luminescence quenchers, dual-tagged ARNT – biochemical, AlphaScreen, cherry-pick, artefact control for ARNT-TACC3 interaction inhibitor project, dose response (AID 651705); type: functional;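 also: AlphaScreen bead proximity signal that flags compounds interfering with the detection technology; potency reflects signal decrease which marks the compound as an assay artifact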
Nonstructural protein 1 = Nonstructural protein 1 (Influenza A virus, UniProt Q194T2); type: functional, Influenza A virus (A/California/07/2009(H1N1))
Chain of Nonstructural protein 1 (Q194T2 whole entry): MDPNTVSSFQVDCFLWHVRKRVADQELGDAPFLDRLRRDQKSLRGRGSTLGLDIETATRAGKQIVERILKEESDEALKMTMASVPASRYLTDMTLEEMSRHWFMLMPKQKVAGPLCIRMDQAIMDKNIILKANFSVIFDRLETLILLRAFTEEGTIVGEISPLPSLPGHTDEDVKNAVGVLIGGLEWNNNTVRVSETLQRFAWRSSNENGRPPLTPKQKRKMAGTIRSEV

[32] = target: 5-hydroxytryptamine receptor 2A (Mus musculus, UniProt P35363); type: functional, cell-based;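 also: CHO-K1 cells with tagged receptor and beta-arrestin; agonist potency measured as compound-induced activation of the receptor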
Mu-type opioid receptor [33] = target: T3, Mu-type opioid receptor; type: functional, cell-based

Cc1cc(C(=O)Nc2sc3c(c2C#N)CCCC3)no1
EC50 [1]: > 180 µM (inactive) | EC50 [2]: > 160 µM (inactive) | EC50 [3]: 24.9 µM (active) | EC50 [4]: 2.21 µM (active)

O=C(O)CN1C(=O)CC(Cc2ccc(Cl)cc2)C1=O (stereo not given)
AC50 (Escherichia coli [5]): 106 µM (active)

O=C(OCC(=O)c1cccs1)c1ccc([N+](=O)[O-])o1
IC50 [6]: 92.6 µM (inactive) | IC50 (Exodeoxyribonuclease V): > 119 µM (inactive)

Cc1ccc2nc(-c3ccc(-c4cccc(Cl)c4)cc3)c(NCc3ccccc3)n2c1
AC50 (INS1): 2.29 µM (active) | AC50 [7]: 4.96 µM (active) | AC50 [8]: 24 µM (active) | IC50 [9]: 0.848 µM (active)

COc1ccc(-c2cc(NCCc3ccncc3)n3ncnc3n2)cc1
AC50 [10]: 18.6 µM (active) | AC50 [11]: > 120 µM (inactive)

C[C@H](NS(=O)(=O)c1ccc(Cl)c(Cl)c1)C(=O)OCc1cc(=O)n2cc(Br)ccc2n1
AC50 (Escherichia coli [12]): 67.4 µM (active)

COc1ccc(C(C#N)(CCC#N)CCC#N)cc1OC
IC50 [13]: > 83.3 µM (inactive) | IC50 [14]: > 109 µM (inactive) | IC50 [15]: > 79.4 µM (inactive) | IC50 [16]: > 79.4 µM (inactive) | IC50 [17]: > 79.4 µM (inactive)

Cn1c(=O)cc(SCC(=O)N2CCCC2)c2ccc(Cl)cc21
EC50 [18]: > 79.4 µM (not active) | EC50 [19]: > 79.4 µM (inactive) | EC50 [20]: > 79.4 µM (not active)

CCCCCOc1ccc(CSC(=N)N)cc1[N+](=O)[O-]
IC50 [21]: > 122 µM (inactive) | IC50 [6]: 83.6 µM (inactive) | EC50 [22]: 27 µM (active) | IC50 (Vero [23]): 21.2 µM (active) | EC50 [24]: 25 µM (active) | CC50 (Vero [25]): > 25 µM (active) | IC50 (Exodeoxyribonuclease V): > 39.5 µM (inactive)

CCOC1(C)OCC(=O)[C@]2(CCC3C4CCC5=CC(=O)C=CC5(C)C4C(=O)CC32C)O1 (stereo not given in full)
IC50 [15]: > 79.4 µM (inactive) | IC50 [16]: > 79.4 µM (inactive) | IC50 [17]: > 79.4 µM (inactive)

Fc1ccc(CSc2nnc(-c3ccccn3)n2Cc2ccco2)c(C(F)(F)F)c1
EC50 (Mu-type opioid receptor [26]): > 32 µM (inactive) | EC50 [27]: 8.27 µM (active) | EC50 [28]: 5.39 µM (active) | EC50 [29]: > 64 µM (inactive)

O=C(Cn1cnc([N+](=O)[O-])n1)N/N=C/c1ccc(O)cc1O
IC50 [30]: 107 µM (active) | AC50 [7]: 19.3 µM (active) | AC50 [31]: 102 µM (active) | AC50 [8]: 20.8 µM (active) | IC50 (Nonstructural protein 1): 10.9 µM (active)

CN(C)[C@@H]1C(O)=C(C(N)=O)C(=O)[C@@]2(O)C(O)=C3C(=O)c4c(O)ccc(Cl)c4[C@@H](O)[C@H]3C[C@@H]12 [DEMECLOCYCLINE HYDROCHLORIDE]
EC50 [32]: 13.7 µM (inactive) | EC50 (Mu-type opioid receptor [33]): 92.5 µM (inactive) | AC50 (Escherichia coli [12]): 0.866 µM (active) | AC50 (Escherichia coli [5]): 36 µM (active)

Source: ChEMBL document CHEMBL1201862, “PubChem BioAssay data set” (2004)
